Measured values taken from patent US4312883A, “Furocoumarin for the photochemotherapy of psoriasis and related skin diseases” (Consiglio Nazionale delle Ricerche, priority 1979, dated 1982).

Experiments:
epidermal DNA synthesis [1] = test: Inhibition of epidermal DNA synthesis in the mouse in vivo after topical application and UV-A irradiation; conditions: light or radiation study, 0.01% methanol solutions, UV-A 9 J/cm^2, read-out: Percent inhibition ± standard error of epidermal DNA synthesis
Procedure: DNA samples were dissolved in water and their specific radioactivity determined.
Each drug substance was studied using at least six mice.

epidermal DNA synthesis [2] = test: Inhibition of the synthesis of epidermal DNA of the mouse in vivo after oral administration and UV-A irradiation; conditions: oral 0.25 g/Kg, UV-A 9 J/cm^2 after two hours
Excerpt: Considering that the topical skin tests carried out on mice to evaluate the effectiveness of these substances has yielded data which correlate well with the clinical data, such a test conveniently modified has been adopted to evaluate the effectiveness of the alkylangelicins after oral administration followed by UV-A irradiation.
In this connection experiments have been conducted using mice 20±2 g in weight, that were starved for three hours before oral administration of the alkylangelicins. Groups of 5 mice were fed a suspension of 0.5% methylcellulose in water containing the alkylangelicins of the invention at a dosage of 0.25 g/Kg. The animals were kept in the dark for two hours, that is for the time necessary for absorption, systemic distribution and localization of the drug at the level of the skin. The animals were then irradiated with UV-A light, 9 J/cm^2. Later the animals were sacrificed and the inhibition of the epidermal DNA synthesis was tested; the results obtained are reported in Table VI. The skin on the back, protected from light by a dark paper, was assumed as a control. As a reference 8-MOP, used under the same experimental conditions, was also tested. The significant activity of the alkylangelicins according to the present invention, higher than that of 8-MOP, in inhibiting the epidermal DNA synthesis in mice upon oral administration allows one to consider these compounds as also being effective for oral administration to humans for photochemotherapy of psoriasis and of other skin diseases that are characterized by cellular hyperproliferation.

DNA [3] = test: Photobinding to DNA, rate constants of the photoreactions; type: biochemical; conditions: for Rate constants of the photoreactions with DNA: in vitro, UV-A irradiated; for Rate constants of the photoreactions with DNA, relative: relative (ang = 100)
Excerpt: (b) Determined according to F. Dall'Acqua, S. Marciani, F. Zambon and G.
Rodighiero, Photochem. Photobiol., 29,489(1979).
Photobinding capacity to DNA: The introduction of one or two methyl groups in the molecule of angelicin leads to a strong increase of the photobinding to DNA; see Table II. […] Photobiol., 29, 489 (1979).

DNA [4] = test: Capacity to form inter-strand cross-linkages in DNA; type: biochemical; conditions: (psr = 100)
Procedure: All these compounds were not suitable to photoinduce in DNA inter-strand cross-linkages. […] These tests were carried out according to the method of F. Bordin et al., Photochem. Photobiol., 29,1063 (1979).

skin = test: Relative skin phototoxicity; conditions: (psr = 100)
DNA [5] = test: Dark complex formation (intercalation) with DNA in the ground state, binding parameters; parameters: K (association constants) of the complexes with DNA: unit not given here; conditions: for K (association constants) of the complexes with DNA / 1/n (frequency of binding sites): in vitro, ground state; for K (association constants) of the complexes with DNA: McGhee and Von Hippel method; for 1/n (frequency of binding sites): molecules bound per nucleotide; for 1/n (frequency of binding sites), relative / K (association constants), relative: relative (ang = 100)
Excerpt: Dark complex formation: It is known from F. Dall'Acqua, et al. Chem.-Biol. Interactions 21,103 (1978) that the intercalated complex formed by furocoumarins with DNA strongly affects the successive photoaddition increasing the rate of photobinding. […] These parameters have been determined according to the method of McChee and Von Hippel, J.Mol.Biol, 86, 469 (1974).
(a) Determined according to Mc Ghee and Von Hippel, J. Mol. Biol.,

[6] = tested on: DNA synthesis in Ehrlich ascites tumor cells; test: Inhibition of DNA synthesis (and DNA and RNA synthesis) on irradiation at 365 nm; type: cell-based; conditions: for inhibition of DNA synthesis, relative: relative (ang = 100)
Excerpt: (§1) Photobiological activity: A significant test for assessing photobiological activity of alkylangelicins is the study of their capacity to inhibit DNA and RNA synthesis in Ehrlich ascites tumor cells. In Table III the capacity of inhibition is expressed as ID50, that is the irradiation does, in terms of quanta at 365 nm, necessary to inhibit in these cells the 50% of the DNA and RNA synthesis in the presence of a constant amount of alkylangelicin. […] Moreover, in general it can be observed that in this simple biological system a close correlation exists between photobiological activity and the capacity to induce photochemical lesions in DNA, that is photoreactivity.

[7] = tested on: RNA synthesis in Ehrlich ascites tumor cells; test: Inhibition of RNA synthesis on irradiation at 365 nm; type: cell-based; conditions: relative (ang = 100)
Excerpt: as §1

melamin pigmentation = conditions: Table I; cited from earlier work
psoriasis = test: Topical photochemotherapy of psoriasis in patients; type: in vivo, human; conditions: for No. of patients with Excellent result / No. of patients with Fair result / No. of patients with Good result / No. of patients with Poor result: topical 0.1% w/v + UV-A; for No. of patients with Excellent result: Excellent = 90% clearance; for No. of patients with Fair result: Fair = 50-70%; for No. of patients with Good result: Good = 70-90%; for No. of patients with Poor result: Poor 40%
Excerpt: Clinical data: The effectiveness of certain representative alkylangelicins according to the present invention, specifically 5-methylangelicin, 4,5'-dimethylangelicin, 4'-hydroxymethyl-4,5'-dimethylangelicin, 4'-hydroxymethyl-4,5'-dimethylangelicin and 4,5-dimethylangelicin, has been tested by measuring their capacity to resolve psoriasis in various patients. For a direct comparison the efficacy of the parent unsubstituted angelicin and that of three very effective linear furocoumarins, that is 8-methoxypsoralen (8-MOP), 5-methoxypsoralen (5-MOP), and 4,5',8-trimethylpsoralen (TMP) were also tested.
In each treatment four areas of the affected skin were used;
(a) In the first area an alcohol lotion, containing 10% glycerine, of the tested compound (0.1% w/v) was applied until a concentration of […] was reached then left to evaporate by the heat of the body. After half an hour the area was irradiated with high intensity UV-A emitting low pressure mercury fluorescent lamps with a wavelength of 320-400 nm. The irradiation doses were selected in the range of 4.5-13 J/cm^2 for each application as a function of the sensitivity of the skin of the patients; when the skin sensitivity was higher, the light doses were lower and vice versa.
(b) A second area was treated with an alcohol solution of the drug as in (a) but it was covered and maintained in the dark.
(c) A third area, where the drug was not applied, was irradiated as in (a) but in general with higher UV-A doses.
(d) A fourth area was not treated at all, neither with the drug, not with UV-A.
The treatment with the alkylangenlicins referred to above was repeated 5 time a week for two or more weeks; the total number of treatments was between 8 and 20 per subject. In some cases, as for instance with 5-methylangelicin, a good clearing of psoriasis was observed after 8 treatments.
In order to avoid induction of photosensitization processes such as redness and erythema in the reference tests made with the linear furocoumarins 8-MOP, 5-MOP, TMP, lower light doses were used than in the case of alkylangelicins, the treatments were repeated at a frequency of no more than three times a week.

[8] = Table I; cited from earlier work
[9] = known furocoumarins, Table I; cited from earlier work
[10] = cited from earlier work
DNA [11] = conditions: cited from earlier work; for DNA intercalation property / Interstrand cross-linking induction in DNA / Monoadduct forming property: Table I; for Photobinding capacity to DNA: known furocoumarins
DNA synthesis = conditions: Table I; cited from earlier work

Compound | inhibition in vivo at 0.01 % (epidermal DNA synthesis [1]) | Rate constants of the photoreactions with DNA (DNA [3]) | Rate constants of the photoreactions with DNA, relative (DNA [3]) | capacity to form interstrand cross-linkages (DNA [4]) | Relative skin phototoxicity (skin) | K (association constants) of the complexes with DNA (DNA [5]) | 1/n (frequency of binding sites) (DNA [5]) | 1/n (frequency of binding sites), relative (DNA [5]) | K (association constants), relative (DNA [5]) | inhibition of DNA synthesis, relative [6] | inhibition of RNA synthesis, relative [7] | No. of patients with Excellent result (psoriasis) | No. of patients with Fair result (psoriasis) | No. of patients with Good result (psoriasis) | No. of patients with Poor result (psoriasis) | other results
CC(=O)OCc1c(C)oc2ccc3c(C)cc(=O)oc3c12 [4'-acetoxymethyl-4,5'-dimethylangelicin, 4,5'-dimethyl-4'-acetoxymethylangelicin] | 10.6 ± 4.5% |  |  |  |  |  |  |  |  |  |  |  |  |  |  | Percent inhibition ± standard error of epidermal DNA synthesis (epidermal DNA synthesis [2]): 64.8 ± 13.9%
Cc1cc2c(ccc3ccc(=O)oc32)o1 [5'-methylangelicin, 5'methylangelicin] |  | 2.11 K × 10^-2 × min^-1 | 191 | 0 | 0 | 1200 | 0.073 | 116 | 214 | 150 | 134 |  |  |  |  | 
COc1c2ccoc2cc2oc(=O)ccc12 [5-MOP, 5-methoxypsoralen] |  |  |  |  |  |  |  |  |  |  |  | 0 patients | 1 patients | 4 patients | 4 patients | Stimulation of melamin pigmentation (melamin pigmentation): strong, well known; Mutagenicity [8]: known, strong; Photosensitizing activity [9]: known, strong; Carcinogenicity (oral) [10]: weak; Carcinogenicity (topical) [10]: strong; DNA intercalation property (DNA [11]): strong; Interstrand cross-linking induction in DNA (DNA [11]): strong, well known; Monoadduct forming property (DNA [11]): known, strong; Photobinding capacity to DNA (DNA [11]): known, strong; DNA synthesis inhibiting property (DNA synthesis): known, strong
Cc1cc(=O)oc2c1ccc1occc12 [4-methylangelicin] | 68.5 ± 19.5% | 1.61 K × 10^-2 × min^-1 | 146 | 0 | 0 | 1400 | 0.076 | 120 | 250 | 104 | 129 |  |  |  |  | 
Cc1cc(=O)oc2c1c(C)cc1occc12 [4,5-dimethylangelicin] | 36 ± 1.1% |  |  |  |  |  |  |  |  |  |  | 0 patients | 0 patients | 0 patients | 2 patients | efficacy in psoriasis patients (in words) (psoriasis; topical + UV-A): equal to angelicin; Percent inhibition ± standard error of epidermal DNA synthesis (epidermal DNA synthesis [2]): 55.0 ± 6.0%
Cc1cc2c(cc(C)c3ccc(=O)oc32)o1 [5,5'-dimethylangelicin] | 48.3 ± 2.9% | 2.73 K × 10^-2 × min^-1 | 248 | 0 | 0 | 1750 | 0.085 | 135 | 312 | 180 | 355 |  |  |  |  | 
COCc1c(C)oc2ccc3c(C)cc(=O)oc3c12 [4'-methoxymethyl-4,5'-dimethylangelicin, 4,5'-dimethyl-4'-methoxymethylangelicin] |  | 1.6 K × 10^-2 × min^-1 | 145 | 0 | 0 | 700 | 0.050 | 80 | 125 | 110 | 169 |  |  |  |  | 
Cc1cc2c(cc(C)c3c(C)cc(=O)oc32)o1 [4,5,5'-trimethylangelicin] |  |  |  |  |  |  |  |  |  |  |  |  |  |  |  | photobinding capacity to DNA (in words) (DNA [3]; versus angelicin): close to that of angelicin; capacity to inhibit the DNA and RNA synthesis (in words) ([6]; Ehrlich ascites tumor cells, versus angelicin): lower than that of angelicin
Cc1oc2ccc3c(C)cc(=O)oc3c2c1CO [4'-hydroxymethyl-4,5'-dimethylangelicin, 4,5'-dimethyl-4'-hydroxy-methylangelicin] |  | 3.2 K × 10^-2 × min^-1 |  | 0 | 0 | 1250 | 0.087 | 138 | 223 | 272 | 169 | 0 patients | 2 patients | 1 patients | 1 patients | Percent inhibition ± standard error of epidermal DNA synthesis (epidermal DNA synthesis [2]): 54.2 ± 6.8%
4'-aminomethoxymethyl-4,5'-dimethylangelicin |  |  |  |  |  |  |  |  |  |  |  |  |  |  |  | increase of K (affinity towards DNA) (DNA [5]; on introduction of a cationic moiety in addition to the two methyl groups): more than 20 times
Cc1cc2cc3c(C)cc(=O)oc3c(C)c2o1 [TMP, 4,5',8-trimethylpsoralen] |  |  |  |  |  |  |  |  |  |  |  | 2 patients | 2 patients | 2 patients | 2 patients | Stimulation of melamin pigmentation (melamin pigmentation): strong, well known; Mutagenicity [8]: known, strong; Photosensitizing activity [9]: known, strong; Carcinogenicity (oral) [10]: weak; Carcinogenicity (topical) [10]: strong; DNA intercalation property (DNA [11]): strong; Interstrand cross-linking induction in DNA (DNA [11]): strong, well known; Monoadduct forming property (DNA [11]): known, strong; Photobinding capacity to DNA (DNA [11]): known, strong; DNA synthesis inhibiting property (DNA synthesis): known, strong
